# Assay results as given in patent US20180147256A1, “MEANS AND METHODS FOR TREATING FACIOSCAPULOHUMERAL MUSCULAR DYSTROPHY (FSHD)” (ACADEMISCH ZIEKENHUIS LEIDEN H.O.D.N. LUMC, priority 2015, published 2018).
# System: DUX4
# Test: DUX4 transcript levels in FSHD primary muscle cell cultures treated with PR-619
# Assay type: cell-based
# Conditions: DUX4 expressing human primary FSHD myoblasts; 5 μM, 10 μM and 20 μM
# Protocol: To further confirm the hypothesis that sumoylation is relevant for repression of DUX4, PR619 was used as inhibitor for the removal of SUMO substrates from their proteins. PR619 is a non-selective inhibitor of deubiquitinases and ubiquitin-like isopeptidases (like the family of SENP isopeptidases). […] DUX4 expressing human primary FSHD myoblasts were treated with 3 different concentrations of PR619 (5 μM, 10 μM and 20 μM) and cells were harvested for RNA isolation. […] Thus PR619 treatment of DUX4 expressing primary FSHD myotubes leads to DUX4 downregulation.
# Human primary myoblast cell lines were originating from the University of Rochester bio repository (http://www.urmc.rochester.edu/fields-center/). Muscle samples were obtained after subjects were consented under a protocol approved by the institutional review board at the University of Rochester. […]
# Myoblast and myotube samples were harvested for RNA isolation by adding QIAzol lysis reagent (#79306 Qiagen N.V., Venlo, The Netherlands). […] Gene specific cDNA products were quantified by qPCR in duplicate using SYBR green master mix supplemented with gene specific primers (table S2) using the CFX96 system (Bio-Rad, Veenendaal, The Netherlands). Data were analyzed by Bio-Rad CFX manager version 3.0 (Bio-Rad) using GAPDH and GUSB as reference genes.
compound,measurement,value
"N#CSc1cc(SC#N)c(N)nc1N [PR-619, 2,6-Diamino-3,5-dithiocyanopyridine]",DUX4 transcript levels,decreased in cells treated with PR-619 in a dose dependent manner
